Measured values as given in patent publication US8697366B2, “Anti-cancer drug screening method using RORα” (Seoul National University Industry Foundation, priority 2009, dated 2014).
Entries after “also recorded” stand apart in the source; their conditions may differ.

What was measured:
Assay type in all cases: cell-based
[1] = tested on: binding of RORα to β-catenin; test: Coimmunoprecipitation of RORα with β-catenin in HCT116 cells
Procedure: (§1) (A) The specificity of the antibody raised against phosphorylated RORαS35 peptide (SEQ ID NO:18) was assessed by dot blot analysis. (B) Treatment of TPA increased phophorylated RORα on S35 site as assessed by immunoprecipitation with anti-phospho-RORαS35 antibody. […] (D) Treatment of Go6976, a PKCα inhibitor, abolished TPA-dependent phosphorylation of RORα as assessed by immonoblotting with anti-phospho-RORαS35 antibody. (E) HCT116 cells were transfected with Flag-RORα WT, S35D, or S35A, and the cell extracts were immunoprecipitated with anti-Flag antibody followed by immunoblotting against anti-β-catenin antibody. (F) Coimmunoprecipitation assay of β-catenin with either RORαWT or S35A in HCT116 cells after treatment with TPA in the absence or presence of Go6976. (G) ChIP analysis on the cyclin D1 promoter after transfection with Flag-RORαWT, S35A, or S35D in HCT116 cells. (H) ChIP analysis on the cyclin D1 promoter in HCT116 cells after TPA treatment for indicated time. (I) ChIP assay was performed on the cyclin D1 promoter in the absence or presence of siRNA against PKCα with treatment of TPA for 90 min. (J) Real-time quantitative RT-PCR analysis of the cyclin D1 transcript in HCT116 cells in the presence of TPA for indicated time. (K) Knockdown effect of siRNA against RORα or PKCα was assessed in the expression of the cyclin D1 transcript in HCT116 cells.

[2] = tested on: RORα; test: Phosphorylation of RORα in HCT116 cells (immunoprecipitation / immunoblot with anti-phospho-Ser or anti-phospho-RORαS35 antibody)
Procedure: (A) Schematic representation of RORα showing the location of the N-terminal domain (NTD), the DNA-binding domain (DBD), the hinge region, the ligand-binding domain (LBD), and the AF-2 domain. […] HEK293 cells were cotransfected with plasmids expressing each His-tagged RORα deletion construct and β-catenin. Whole cell extracts (left panel) and Ni^+-NTA-agarose pulldown materials (right panel) were analyzed by immunoblotting against anti-β-catenin IgG or anti-Xpress IgG. (C) Illustration of the structure of deletion fragments of RORα(SEQ ID NO:17). (D) Interaction of each RORα deletion construct with HisMax-β-catenin was assessed by Ni^+-NTA-agarose pulldown assay. […] The phosphorylated peptide samples were analyzed by LC-MS analysis. […] Immunoprecipitation assay was conducted with anti-Flag antibody, and the phosphorylated RORα was detected by immunoblot analysis with anti-phospho-Ser antibody. […] The reaction samples were subjected to 12% SDSPAGE, and phosphorylated RORα was detected by autoradiography. […] The fluorescence-conjugated secondary antibody was visualized using fluorescence microscopy, and nuclear staining with DAPI was shown.
(A) The specificity of the antibody raised against phosphorylated RORαS35 peptide (SEQ ID NO:18) was assessed by dot blot analysis. (B) Treatment of TPA increased phophorylated RORα on S35 site as assessed by immunoprecipitation with anti-phospho-RORαS35 antibody. […]

[3] = tested on: cyclin D1 promoter; test: ChIP assay on the cyclin D1 promoter in HCT116 cells
Procedure: as §1
(B) Cyclin D1 transcript was measured after introducing siRNAs against RORα or PKCα in the presence of Wnt5a in HCT116 cells. (C) Real-time quantitative RTPCR analysis of the cyclin D1 transcript in HCT116 cells after introducing RORα, S35A, or S35D in the presence of Wnt5a. (D) […] on the cyclin D1 promoter with treatment of either TPA or Wnt5a in HCT116 cells. Occupancy of the cyclin D1 promoter by phosphorylated RORα, β-catenin, RNA polymerase II, H3K9me2, H3K4me2, CBP, pCAF, p300, or SMRT was indicated. (E) Transwell cell migration assay for RORα, RORαS35A, or RORαS35D-expressing HCT116 cells with treatment of Wnt5a. Values are represented as mean±s.d. for three independent experiments. (F) The anchorage-independent growth of HCT116 cells expressing RORα, RORαS35A, or RORαS35D in soft agar. Values are expressed as mean±SEM for two experiments in 6 place wells. Colonies were counted in 10 different fields and total colony number/well was calculated. Representative image is shown for each group.
The ChIP, two-step ChIP, and shRNA-coupled ChIP assays were conducted as previously described (Baek et al., 2002; Kim et al., 2005).

[4] = tested on: cyclin D1 transcript; test: Real-time quantitative RT-PCR of the cyclin D1 transcript in HCT116 cells
Procedure: The abundance of mRNA was detected by an ABI prism 7300 system with SYBR Green (molecular probes). Primer pairs were designed to amplify 90-150 bp mRNA specific fragments, and confirmed to be unique products by melting curve analysis. The PCR conditions were 95° C. (5 min) and 40 cycles of 95° C. (30 s), 57° C. (30 s), and 72° C. (30 s).
The quantity of mRNA was calculated using the ΔΔCt method and normalized by using primers to detect β-actin or HPRT. All reactions were performed in triplicates.

## Cn1c2ccccc2c2c3c(c4c5ccccc5n(CCC#N)c4c21)CNC3=O [Go6976]
[1]; TPA plus Go6976
  TPA-induced increased binding of RORα to β-catenin: almost completely abolished
[2]; in presence of TPA, anti-phospho-RORαS35 immunoblot
  TPA-induced phosphorylation of RORα: abolished

## CCCCCCCCCCCCCC(=O)O[C@@H]1[C@@H](C)[C@@]2(O)[C@@H](C=C(CO)C[C@]3(O)C(=O)C(C)=C[C@@H]23)[C@@H]2C(C)(C)[C@]12OC(C)=O [TPA, 12-O-tetradecanoylphorbol-13acetate]
[1]; TPA treatment
  binding of RORα to β-catenin: significantly increased
[3]
  RNA polymerase II recruitment on the cyclin D1 promoter: concomitant decrease; also recorded: decreased
  methylation of histone H3K9 on the cyclin D1 promoter: increased methylation
  recruitment of CBP, p300, and pCAF coactivators to the cyclin D1 promoter: significantly decreased
  recruitment of β-catenin on the cyclin D1 promoter: not altered
[3]; anti-phospho-RORαS35 IgG
  recruitment of phosphorylated RORα on the cyclin D1 promoter: increased the recruitment
[2]; HCT116 cells, treatment alone
  phosphorylation of RORα: increased phosphorylation
[4]
  cyclin D1 transcript: downregulation
